Laboratory results reported in publication PMC5781198 (Influenza and Other Respiratory Viruses, 2013).

Key:
[1] = test system: influenza A(H1N1)pdm09 viruses, neuraminidase (NA); assay type: biochemical, Influenza A(H1N1)pdm09 virus
[2] = test system: influenza B Victoria lineage viruses, neuraminidase (NA); assay type: biochemical, Influenza B virus (Victoria lineage)
[3] = test system: influenza B viruses, neuraminidase (NA); assay type: biochemical, Influenza B virus
[4] = test system: influenza A(H3N2) viruses, neuraminidase (NA); assay type: biochemical, Influenza A(H3N2) virus
[5] = test system: A/Puerto Rico/34/2011 NA (D151D/G/N); assay type: biochemical, Influenza A(H3N2) virus

Row | Structure (SMILES) | IC50 of outliers relative to the mean IC50 for the drug [1] | susceptibility in words [1] | susceptibility of A(H1N1)pdm09 viruses compared with A(H3N2) viruses [1] | difference in IC50 between Victoria and Yamagata lineage viruses [2] | susceptibility in words [3] | IC50 of outliers relative to the mean IC50 for the drug [4] | susceptibility in words [4] | sensitivity compared with the other three NAIs [1] | fold difference in IC50 [5] | sensitivity compared with zanamivir and laninamivir [4]
1 | [H]/N=C(\N)N[C@H]1C=C(C(=O)O)O[C@@H]([C@H](OC)[C@H](O)CO)[C@@H]1NC(C)=O [Laninamivir, laninamivir] | approximately twofold more | showed sensitivity to the drug | approximately twofold more sensitive | no apparent differences | showed sensitivity to the drug | approximately twofold more | showed sensitivity to the drug | – | – | –
2 | CCC(CC)[C@H](NC(C)=O)[C@@H]1[C@H](O)[C@@H](C(=O)O)C[C@H]1N=C(N)N [Peramivir, peramivir] | – | – | approximately twofold more sensitive | no apparent differences | – | – | – | fourfold more sensitive | 0·08 (1) fold | threefold more sensitive
3 | CC(=O)N[C@H]1[C@H]([C@H](O)[C@H](O)CO)OC(C(=O)O)=C[C@@H]1N=C(N)N [Zanamivir, zanamivir] | – | all showed sensitivity to the drug | approximately twofold more sensitive | no apparent differences | showed sensitivity to the drug | – | – | – | – | –
